Source: US20250320193A1, “OXOISOINDOLINYL SUBSTITUTED PIPERIDINEDIONE DERIVATIVE AND USE THEREOF” (GLUETACS THERAPEUTICS (SHANGHAI) CO., LTD., priority 2022, published 2025)

How the values were obtained:
[1] = target: human Cereblon WT GST-tagged protein (Homo sapiens (Human), UniProt Q96SW2); experiment: CRBN-binding affinity, HTRF (CEREBLON BINDING kit, CISBIO); settings: HTRF inhibitory activity
Summary of the method: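 HTRF competition format: test compound displaces Thalidomide-Red from GST-tagged human Cereblon WT, detected with a Eu-labelled anti-GST antibody. Percent CRBN binding inhibition was derived from the 620 nm signal, normalized to solvent-control and protein-free blank wells.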

[2] = tested on: CCRF-CEM (human acute lymphoblastic leukemia T-cells); experiment: Tumor cell proliferation inhibition, CCK-8; type: cell-based; settings: CCRF-CEM cells, CCK-8, read-out: inhibitory activity (IC50, nM) CCRF-CEM
Method: (§1) The tumor cells used herein were cultured in a cell culture medium listed in table 2 at 37° C. in an incubator with 5% CO2. Prior to experimentation, all cells used were correctly identified by STR profiling, and tested negative for mycoplasma through routine screenings.
(§2) IC50 values of the compounds of the present disclosure (including the compounds in Table 1 and the Examples 1-305 compounds) were measured using the Meilun Cell Counting Kit-8 kit from Dalian Meilun Biotech Co., Ltd. Assay details are as follows: tumor cells were seeded in a 96-well plate at a density listed in Table 5. After 24 h, 100 μL of the inoculated cells were treated with 0.5 μL of the compounds of the present disclosure (including the compounds in Table 1 and the Examples 1-305 compounds) at 10 different successively decreasing concentrations (starting at the highest concentration of 10 μM; 5-fold serial dilutions). After the cells were treated with the compounds of the present disclosure for a period of time, the cell viability detection reagent was added to the culture medium for cell viability assessment according to the instructions provided with the CCK-8 kit. […] The growth inhibition of the compounds of the present disclosure on cells was plotted by Prism Graphpad software, and the IC50 values of the compounds of the present disclosure were calculated therefrom.

IKZF1 = IKZF1 (Homo sapiens (Human), UniProt Q13422+Q96SW2); experiment: Western blot, substrate protein expression in hPBMC: IKZF1; type: cell-based; settings: hPBMC, compound 500 nM, 24 hours, Western blot
Summary of the method: (§3)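 hPBMC, 1×10^6 cells/mL, 24 h compound exposure; RIPA lysis, BCA protein assay, SDS-PAGE, NC membrane immunoblot. Densitometry vs internal control → % protein remaining; degradation % = 100% − remaining; DC50 = conc. at 50% of DMSO band signal.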

GSPT1 = GSPT1 (Homo sapiens (Human), UniProt P15170+Q96SW2); experiment: Western blot, substrate protein expression in hPBMC: GSPT1; type: cell-based; settings: hPBMC, compound 500 nM, 24 hours, Western blot
Summary of the method: as §3

[3] = tested on: MM.1S cells (human multiple myeloma cells); experiment: Tumor cell proliferation inhibition, CCK-8; type: cell-based; settings: MM1.S, MM.1S cells, CCK-8, read-out: inhibitory activity (IC50, nM) MM.1S
Method: as §1, §2

[4] = tested on: CAL-62 (human thyroid carcinoma cells); experiment: Tumor cell proliferation inhibition, CCK-8; type: cell-based; settings: CAL-62 cells, CCK-8, read-out: inhibitory activity (IC50, nM) CAL-62
Method: as §1, §2

[5] = tested on: Jurkat cells (human T-cell leukemia cells); experiment: Tumor cell proliferation inhibition, CCK-8; type: cell-based; settings: Jurkat cells, CCK-8, read-out: inhibitory activity (IC50, nM) Jurkat
Method: as §1, §2

[6] = tested on: TMD8 cells (human diffuse large B-cell lymphoma cells); experiment: Tumor cell proliferation inhibition, CCK-8; type: cell-based; settings: TMD8 cells, CCK-8, read-out: inhibitory activity (IC50, nM) TMD8
Method: as §1, §2

IKZF3 = IKZF3 (Homo sapiens (Human), UniProt Q96SW2+Q9UKT9); experiment: Western blot, substrate protein expression in hPBMC: IKZF3; type: cell-based; settings: hPBMC, compound 500 nM, 24 hours, Western blot
Summary of the method: as §3

[7] = tested on: H146 cells (human small cell lung carcinoma cells); experiment: Tumor cell proliferation inhibition, CCK-8; type: cell-based; settings: NCI-H146, H146 cells, CCK-8, read-out: inhibitory activity (IC50, nM) H146
Method: as §1, §2

[8] = tested on: MDA-MB-231 cells (human breast adenocarcinoma cells); experiment: Tumor cell proliferation inhibition, CCK-8; type: cell-based; settings: MDA-MB-231 cells, CCK-8, read-out: inhibitory activity (IC50, nM) MDA-MB-231
Method: as §1, §2

IKZF1, sequence (Q13422 whole entry): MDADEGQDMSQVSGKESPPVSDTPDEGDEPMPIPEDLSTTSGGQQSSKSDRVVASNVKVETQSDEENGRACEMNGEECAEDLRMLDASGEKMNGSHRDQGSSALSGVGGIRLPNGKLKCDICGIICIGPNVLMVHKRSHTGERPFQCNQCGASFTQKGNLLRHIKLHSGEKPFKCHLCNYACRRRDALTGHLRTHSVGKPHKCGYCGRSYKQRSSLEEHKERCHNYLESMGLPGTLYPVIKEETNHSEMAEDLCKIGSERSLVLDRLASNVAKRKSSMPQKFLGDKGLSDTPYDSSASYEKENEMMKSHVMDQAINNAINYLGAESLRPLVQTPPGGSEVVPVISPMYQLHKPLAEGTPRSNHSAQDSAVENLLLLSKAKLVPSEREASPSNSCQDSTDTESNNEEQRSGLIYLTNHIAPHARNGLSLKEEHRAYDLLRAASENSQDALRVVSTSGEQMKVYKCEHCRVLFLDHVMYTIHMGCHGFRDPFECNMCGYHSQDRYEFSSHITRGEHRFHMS
IKZF1, sequence (Q96SW2 whole entry): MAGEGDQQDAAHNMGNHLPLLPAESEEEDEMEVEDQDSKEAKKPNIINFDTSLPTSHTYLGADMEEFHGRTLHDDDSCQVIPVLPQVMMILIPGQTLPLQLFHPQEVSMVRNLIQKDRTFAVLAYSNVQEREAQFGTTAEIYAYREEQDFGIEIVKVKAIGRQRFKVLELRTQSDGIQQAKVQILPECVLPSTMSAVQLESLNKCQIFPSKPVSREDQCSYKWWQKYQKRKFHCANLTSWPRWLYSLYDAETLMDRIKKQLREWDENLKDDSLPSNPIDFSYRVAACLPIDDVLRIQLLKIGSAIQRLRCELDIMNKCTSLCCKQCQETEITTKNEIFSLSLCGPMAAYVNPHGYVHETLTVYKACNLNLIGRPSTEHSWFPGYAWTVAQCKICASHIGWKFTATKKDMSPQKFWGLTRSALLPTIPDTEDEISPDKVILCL
IKZF1, sequence (Q16531 whole entry partner): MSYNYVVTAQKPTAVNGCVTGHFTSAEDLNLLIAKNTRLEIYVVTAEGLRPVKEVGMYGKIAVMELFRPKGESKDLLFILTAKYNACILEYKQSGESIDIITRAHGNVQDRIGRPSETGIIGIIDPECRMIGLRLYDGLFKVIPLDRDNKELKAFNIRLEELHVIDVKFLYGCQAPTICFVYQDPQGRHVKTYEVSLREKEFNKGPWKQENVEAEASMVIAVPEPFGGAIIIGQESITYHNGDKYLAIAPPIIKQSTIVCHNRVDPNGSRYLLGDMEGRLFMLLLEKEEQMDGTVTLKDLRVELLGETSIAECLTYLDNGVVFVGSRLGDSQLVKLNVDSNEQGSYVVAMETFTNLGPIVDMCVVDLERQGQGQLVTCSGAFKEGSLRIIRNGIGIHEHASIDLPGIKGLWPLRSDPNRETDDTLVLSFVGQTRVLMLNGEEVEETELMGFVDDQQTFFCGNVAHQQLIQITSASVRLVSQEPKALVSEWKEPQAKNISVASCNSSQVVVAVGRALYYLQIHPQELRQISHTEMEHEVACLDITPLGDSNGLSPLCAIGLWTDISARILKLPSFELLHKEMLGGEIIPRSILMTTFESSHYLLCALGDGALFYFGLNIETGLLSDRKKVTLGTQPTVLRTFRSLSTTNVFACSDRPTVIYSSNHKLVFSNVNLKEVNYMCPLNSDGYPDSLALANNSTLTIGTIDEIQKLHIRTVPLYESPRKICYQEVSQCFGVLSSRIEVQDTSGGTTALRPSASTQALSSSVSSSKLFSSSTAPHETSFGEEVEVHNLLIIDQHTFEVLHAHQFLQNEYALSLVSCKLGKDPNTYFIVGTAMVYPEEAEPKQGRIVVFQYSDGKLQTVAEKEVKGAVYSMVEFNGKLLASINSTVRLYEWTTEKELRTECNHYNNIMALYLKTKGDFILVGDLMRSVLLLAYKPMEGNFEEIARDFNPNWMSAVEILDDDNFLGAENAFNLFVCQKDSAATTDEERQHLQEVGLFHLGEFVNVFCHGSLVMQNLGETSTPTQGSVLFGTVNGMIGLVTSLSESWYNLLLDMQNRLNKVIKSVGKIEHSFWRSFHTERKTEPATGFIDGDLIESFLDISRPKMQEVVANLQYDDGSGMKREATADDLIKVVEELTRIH
GSPT1, sequence (P15170 whole entry): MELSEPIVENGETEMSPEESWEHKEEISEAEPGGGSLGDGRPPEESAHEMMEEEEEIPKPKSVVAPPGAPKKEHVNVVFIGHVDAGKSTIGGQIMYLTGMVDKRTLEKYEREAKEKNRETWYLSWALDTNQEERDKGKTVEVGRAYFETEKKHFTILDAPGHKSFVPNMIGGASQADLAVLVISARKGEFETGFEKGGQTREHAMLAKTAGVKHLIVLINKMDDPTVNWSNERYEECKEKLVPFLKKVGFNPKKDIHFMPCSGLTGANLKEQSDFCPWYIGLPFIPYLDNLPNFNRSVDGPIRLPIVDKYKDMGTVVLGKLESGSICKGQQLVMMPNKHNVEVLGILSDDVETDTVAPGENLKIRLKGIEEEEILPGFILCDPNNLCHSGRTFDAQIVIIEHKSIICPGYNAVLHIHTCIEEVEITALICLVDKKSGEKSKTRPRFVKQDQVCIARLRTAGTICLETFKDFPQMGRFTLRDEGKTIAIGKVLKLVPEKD
GSPT1, sequence (Q96SW2 whole entry): as the sequence (Q96SW2 whole entry) above
GSPT1, sequence (Q16531 whole entry partner): as the sequence (Q16531 whole entry partner) above
IKZF3, sequence (Q9UKT9 whole entry): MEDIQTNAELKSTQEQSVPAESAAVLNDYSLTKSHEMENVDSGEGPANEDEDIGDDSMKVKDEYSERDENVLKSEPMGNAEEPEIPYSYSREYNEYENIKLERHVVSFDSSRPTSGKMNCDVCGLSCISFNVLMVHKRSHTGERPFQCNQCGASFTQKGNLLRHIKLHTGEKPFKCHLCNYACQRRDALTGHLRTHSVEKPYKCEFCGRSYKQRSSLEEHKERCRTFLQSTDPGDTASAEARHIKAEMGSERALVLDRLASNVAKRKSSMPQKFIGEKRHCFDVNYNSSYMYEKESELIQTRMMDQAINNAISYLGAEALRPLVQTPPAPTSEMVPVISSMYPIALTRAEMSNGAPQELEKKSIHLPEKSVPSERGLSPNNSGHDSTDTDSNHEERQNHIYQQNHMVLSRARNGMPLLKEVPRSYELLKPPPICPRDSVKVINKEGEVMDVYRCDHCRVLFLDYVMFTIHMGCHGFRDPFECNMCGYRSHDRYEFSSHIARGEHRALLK
IKZF3, sequence (Q96SW2 whole entry): as the sequence (Q96SW2 whole entry) above
IKZF3, sequence (Q16531 whole entry partner): as the sequence (Q16531 whole entry partner) above
human Cereblon WT GST-tagged protein, sequence (Q96SW2 whole entry): as the sequence (Q96SW2 whole entry) above

Compound | IC50 [1] [nM] | IC50 [2] [nM] | IC50 [3] [nM] | IC50 [4] [nM] | IC50 [6] [nM] | substrate protein remaining % IKZF1 (IKZF1) | substrate protein remaining % GSPT1 (GSPT1) | IC50 [5] [nM] | substrate protein remaining % IKZF3 (IKZF3) | IC50 [7] [nM] | IC50 [8] [nM]
O=C1CCC(N2Cc3cc(CN4C5CCC4CN(C(c4ccccc4)c4ccccc4)C5)cc(F)c3C2=O)C(=O)N1 (centres unmarked) [GT-03840, 3-(5-((3-benzhydryl-3,8-diazabicyclo[3.2.1]octan-8-yl)methyl)-7-fluoro-1-oxoisoindolin-2-yl)piperidine-2,6-dione] | 1000 to 1900 | 10 to 50 |  |  |  |  |  |  |  |  | 
O=C1CCC(N2Cc3cc(CN4CCC(N(c5ccccc5)c5ccccc5)CC4)ccc3C2=O)C(=O)N1 (centres unmarked) [GT-04225, 3-(5-((4-(diphenylamino)piperidin-1-yl)methyl)-1-oxoisoindolin-2-yl)piperidine-2,6-dione] | < 500 | < 1 | < 1 | < 1 | 1 to 10 | A (A represents 0% ≤ substrate protein remaining % ≤ 50%) | A (A represents 0% ≤ substrate protein remaining % ≤ 50%) | < 1 | A (A represents 0% ≤ substrate protein remaining % ≤ 50%) | 1 to 10 | 1 to 10
O=C1CCC(N2Cc3c(ccc(CN4CCC(N(c5ccccc5)c5ccccc5)CC4)c3F)C2=O)C(=O)N1 (centres unmarked) [GT-04226, 3-(5-((4-(diphenylamino)piperidin-1-yl)methyl)-4-fluoro-1-oxoisoindolin-2-yl)piperidine-2,6-dione] | < 500 | < 1 | < 1 | < 1 | 1 to 10 | A (A represents 0% ≤ substrate protein remaining % ≤ 50%) | A (A represents 0% ≤ substrate protein remaining % ≤ 50%) | < 1 | A (A represents 0% ≤ substrate protein remaining % ≤ 50%) | 1 to 10 | 1 to 10
O=C1CCC(N2Cc3cc(CN4CCC(N(c5ccccc5)c5ccccc5)CC4)c(F)cc3C2=O)C(=O)N1 (centres unmarked) [GT-04227, 3-(5-((4-(diphenylamino)piperidin-1-yl)methyl)-6-fluoro-1-oxoisoindolin-2-yl)piperidine-2,6-dione] | 500 to 1000 | < 1 | < 1 | < 1 | 1 to 10 | A (A represents 0% ≤ substrate protein remaining % ≤ 50%) | A (A represents 0% ≤ substrate protein remaining % ≤ 50%) | < 1 | A (A represents 0% ≤ substrate protein remaining % ≤ 50%) | 1 to 10 | 1 to 10
O=C1CCC(N2Cc3cc(C(=O)N4CCN(C(c5cc(F)cc(F)c5)c5cc(F)cc(F)c5)CC4)ccc3C2=O)C(=O)N1 (centres unmarked) [GT-06597, 3-(5-(4-(bis(3,5-difluorophenyl)methyl)piperazine-1-carbonyl)-1-oxoisoindolin-2-yl)piperidine-2,6-dione] | 500 to 1000 |  | 10 to 50 |  | 100 to 500 | A (A represents 0% ≤ substrate protein remaining % ≤ 50%) | A (A represents 0% ≤ substrate protein remaining % ≤ 50%) |  | A (A represents 0% ≤ substrate protein remaining % ≤ 50%) | 10 to 50 | 50 to 100

Further lines, with some results ahead:

IC50 [1] [nM] | IC50 [2] [nM] | IC50 [3] [nM] | IC50 [4] [nM] | IC50 [6] [nM] | Compound | substrate protein remaining % IKZF1 (IKZF1) | substrate protein remaining % GSPT1 (GSPT1) | IC50 [5] [nM] | substrate protein remaining % IKZF3 (IKZF3) | IC50 [7] [nM] | IC50 [8] [nM]
< 500 | 50 to 100 | 100 to 500 | 10 to 50 | 50 to 100 | O=C1CCC(N2Cc3cc(CN4CCN(C(c5ccccc5)c5ccncc5)CC4)ccc3C2=O)C(=O)N1 (centres unmarked) [GT-04205, 3-(1-oxo-5-((4-(phenyl(pyridin-4-yl)methyl)piperazin-1-yl)methyl)isoindolin-2-yl)piperidine-2,6-dione] | A (A represents 0% ≤ substrate protein remaining % ≤ 50%) | A (A represents 0% ≤ substrate protein remaining % ≤ 50%) | 500 to 1000 | A (A represents 0% ≤ substrate protein remaining % ≤ 50%) |  | 
< 500 | 50 to 100 | 100 to 500 | 50 to 100 |  | O=C1CCC(N2Cc3c(ccc(CN4CCN(C(c5ccccc5)c5ccncc5)CC4)c3F)C2=O)C(=O)N1 (centres unmarked) [GT-04247, 3-(4-fluoro-1-oxo-5-((4-(phenyl(pyridin-4-yl)methyl)piperazin-1-yl)methyl)isoindolin-2-yl)piperidine-2,6-dione] | A (A represents 0% ≤ substrate protein remaining % ≤ 50%) | A (A represents 0% ≤ substrate protein remaining % ≤ 50%) |  | A (A represents 0% ≤ substrate protein remaining % ≤ 50%) |  | 
500 to 1000 | 10 to 50 | 50 to 100 | 10 to 50 |  | O=C1CCC(N2Cc3cc(CN4CCN(C(c5ccccc5)c5ccncc5)CC4)c(F)cc3C2=O)C(=O)N1 (centres unmarked) [GT-04248, 3-(6-fluoro-1-oxo-5-((4-(phenyl(pyridin-4-yl)methyl)piperazin-1-yl)methyl)isoindolin-2-yl)piperidine-2,6-dione] | A (A represents 0% ≤ substrate protein remaining % ≤ 50%) | A (A represents 0% ≤ substrate protein remaining % ≤ 50%) | 50 to 100 | B (B represents substrate protein remaining % > 50%) | 100 to 500 | 100 to 500
< 500 | 10 to 50 | 500 to 1000 | 10 to 50 | 100 to 500 | O=C1CCC(N2Cc3cc(CN4CCN(C(c5ccccc5)c5cccnc5)CC4)ccc3C2=O)C(=O)N1 (centres unmarked) [GT-04249, 3-(1-oxo-5-((4-(phenyl(pyridin-3-yl)methyl)piperazin-1-yl)methyl)isoindolin-2-yl)piperidine-2,6-dione] | A (A represents 0% ≤ substrate protein remaining % ≤ 50%) | A (A represents 0% ≤ substrate protein remaining % ≤ 50%) |  | A (A represents 0% ≤ substrate protein remaining % ≤ 50%) |  | 
< 500 | 50 to 100 | 100 to 500 | 50 to 100 |  | O=C1CCC(N2Cc3c(ccc(CN4CCN(C(c5ccccc5)c5cccnc5)CC4)c3F)C2=O)C(=O)N1 (centres unmarked) [GT-04250, 3-(4-fluoro-1-oxo-5-((4-(phenyl(pyridin-3-yl)methyl)piperazin-1-yl)methyl)isoindolin-2-yl)piperidine-2,6-dione] | A (A represents 0% ≤ substrate protein remaining % ≤ 50%) | A (A represents 0% ≤ substrate protein remaining % ≤ 50%) |  | A (A represents 0% ≤ substrate protein remaining % ≤ 50%) |  | 
< 500 | 10 to 50 | 10 to 50 | 10 to 50 | 100 to 500 | O=C1CCC(N2Cc3cc(CN4CCN(C(c5ccccc5)c5cccnc5)CC4)c(F)cc3C2=O)C(=O)N1 (centres unmarked) [GT-04251, 3-(6-fluoro-1-oxo-5-((4-(phenyl(pyridin-3-yl)methyl)piperazin-1-yl)methyl)isoindolin-2-yl)piperidine-2,6-dione] | A (A represents 0% ≤ substrate protein remaining % ≤ 50%) | A (A represents 0% ≤ substrate protein remaining % ≤ 50%) | 50 to 100 | A (A represents 0% ≤ substrate protein remaining % ≤ 50%) | 100 to 500 | 100 to 500
